# Source: publication PMC9403987 (Frontiers in Oncology, 2022)
# How the values were obtained:
# Test in all cases: Cell proliferation assay
# Assay type in all cases: cell-based, Homo sapiens
# A549 = details: A549, lung carcinoma, 72 hours
# Protocol: (§1) To quantify cell proliferation, either the nuclei of live cells were counted following staining with 4’,6-diamidino-2-phenylindole (DAPI; Sigma-Aldrich, Burlington, MA, USA), or metabolically active cells were detected using a CellTiter-Glo assay (Promega Corporation, Madison, WI, USA). Cells from a range of human and mammalian tumor cell lines (American Type Culture Collection, Manassas, VA, USA) were seeded at 4000 cells per well in 100 μL of culture medium in a 96-well plate and incubated overnight at 37°C with 5% CO2. […] In the DAPI staining method, cells were washed using 1× phosphate-buffered saline (PBS; Gibco Thermo Fisher Scientific, Waltham, MA, USA), fixed with 4% formaldehyde, permeabilized with 0.2% Triton X-100 (Sigma-Aldrich), washed again, and stained with 1 μg/mL DAPI to visualize cell nuclei. Cells were washed with 1× PBS three times, and 100 μL 1× PBS was added to each well. Plates were scanned using an IN Cell Analyzer 2200 (GE Healthcare Life Sciences, Chicago, IL, USA) and the number of cells per well was recorded. In the CellTiter-Glo assay, 60 μL of CellTiter-Glo luminescent solution was added to each well after incubation with the test compounds, and the assay plate was scanned using a Tecan Infinite M1000 PRO microplate reader (Tecan Group AG, Männedorf, Switzerland) to record luminescent signals.
# BEL7405 = details: BEL7405, liver, hepatocellular carcinoma, 72 hours
# Protocol: as §1
# CHP-212 = details: CHP-212, brain, neuroblastoma, 72 hours
# Protocol: as §1
# DBTRG-05MG = details: brain, glioblastoma, 72 hours
# Protocol: as §1
# DLD-2 = details: DLD-2, colorectal carcinoma, 72 hours
# Protocol: as §1
# Daoy = details: brain, desmoplastic cerebellar medulloblastoma, 72 hours
# Protocol: as §1
# HCC827 = details: HCC827, lung carcinoma, 72 hours
# Protocol: as §1
# HCCLM3 = details: HCCLM3, liver, hepatocellular carcinoma, 72 hours
# Protocol: as §1
# HCT8 = details: HCT8, colorectal carcinoma, 72 hours
# Protocol: as §1
# Huh-7 = details: Huh-7, liver, hepatocellular carcinoma, 72 hours
# Protocol: as §1
# IMR32 = details: IMR32, brain, neuroblastoma, 72 hours
# Protocol: as §1
# JHH-7 = details: JHH-7, liver, hepatocellular carcinoma, 72 hours
# Protocol: as §1
# KP-N-YN = details: neural, neuroblastoma, 72 hours
# Protocol: as §1
# LS174T = details: colon carcinoma, 72 hours
# Protocol: as §1
# Li-7 = details: Li-7, liver, hepatocellular carcinoma, 72 hours
# Protocol: as §1
# MDA-MB-468 = details: MDA-MB-468, breast carcinoma, 72 hours
# Protocol: as §1
# MHCC97H = details: liver, hepatocellular carcinoma, 72 hours
# Protocol: as §1
# MOG-G-UVW = details: brain, grade III astrocytoma, 72 hours
# Protocol: as §1
# NCI-H1703 = details: NCI-H1703, lung, NSCLC, 72 hours
# Protocol: as §1
# NCI-H1915 = details: NCI-H1915, lung, NSCLC, 72 hours
# Protocol: as §1
# NCI-H2228 = details: NCI-H2228, lung, NSCLC, 72 hours
# Protocol: as §1
# NCI-H292 = details: NCI-H292, lung, mucoepidermoid pulmonary carcinoma, 72 hours
# Protocol: as §1
# SK-MES-1 = details: SK-MES-1, lung carcinoma, 72 hours
# Protocol: as §1
# SK-N-AS = details: brain, neuroblastoma, 72 hours
# Protocol: as §1
# SK-N-BE(2) = details: neuroblastoma, 72 hours
# Protocol: as §1
# SNU-368 = details: SNU-368, liver, hepatocellular carcinoma, 72 hours
# Protocol: as §1
# SNU-387 = details: SNU-387, liver, hepatocellular carcinoma, 72 hours
# Protocol: as §1
# SNU-398 = details: SNU-398, liver, hepatocellular carcinoma, 72 hours
# Protocol: as §1
# SNU-423 = details: SNU-423, liver, hepatocellular carcinoma, 72 hours
# Protocol: as §1
# SNU-449 = details: SNU-449, liver, hepatocellular carcinoma, 72 hours
# Protocol: as §1
# SNU-886 = details: SNU-886, liver, hepatocellular carcinoma, 72 hours
# Protocol: as §1
# U118-MG = details: brain, glioblastoma, 72 hours
# Protocol: as §1
# U251 = details: U251, brain, glioblastoma, 72 hours
# Protocol: as §1
# U87-MG = details: brain, glioblastoma, 72 hours
# Protocol: as §1
compound,measurement,setting,value
"CCN1CCN(Cc2ccc(Nc3ncc(F)c(-c4cc(F)c5nc(C)n(C(C)C)c5c4)n3)nc2)CC1 [Abemaciclib, abemaciclib, reference compound]",IC50,A549; Homo sapiens,104 nM
same,IC50,BEL7405; Homo sapiens,2140 nM
same,IC50,CHP-212; Homo sapiens,32 nM
same,IC50,DBTRG-05MG; Homo sapiens,13 nM
same,IC50,"DLD-2; Homo sapiens, DLD2",237 nM
same,IC50,Daoy; Homo sapiens,> 10000 nM
same,IC50,HCC827; Homo sapiens,16 nM
same,IC50,HCCLM3; Homo sapiens,3100 nM
same,IC50,"HCT8; Homo sapiens, HCT-8",384 nM
same,IC50,Huh-7; Homo sapiens,75 nM
same,IC50,"IMR32; Homo sapiens, IMR-32",25 nM
same,IC50,"JHH-7; Homo sapiens, JHH7",1170 nM
same,IC50,KP-N-YN; Homo sapiens,827 nM
same,IC50,LS174T; Homo sapiens,96 nM
same,IC50,Li-7; Homo sapiens,6290 nM
same,IC50,MDA-MB-468; Homo sapiens,1250 nM
same,IC50,MHCC97H; Homo sapiens,137 nM
same,IC50,MOG-G-UVW; Homo sapiens,72 nM
same,IC50,NCI-H1703; Homo sapiens,93 nM
same,IC50,NCI-H1915; Homo sapiens,324 nM
same,IC50,NCI-H2228; Homo sapiens,2070 nM
same,IC50,NCI-H292; Homo sapiens,149 nM
same,IC50,SK-MES-1; Homo sapiens,148 nM
same,IC50,SK-N-AS; Homo sapiens,138 nM
same,IC50,"SK-N-BE(2); Homo sapiens, SKNBE2, brain",133 nM
same,IC50,SNU-368; Homo sapiens,34 nM
same,IC50,SNU-387; Homo sapiens,193 nM
same,IC50,SNU-398; Homo sapiens,173 nM
same,IC50,SNU-423; Homo sapiens,48 nM
same,IC50,SNU-449; Homo sapiens,159 nM
same,IC50,SNU-886; Homo sapiens,25 nM
same,IC50,"U118-MG; Homo sapiens, U-118-MG",86 nM
same,IC50,"U251; Homo sapiens, U-251",151 nM
same,IC50,"U87-MG; Homo sapiens, U-87 MG",106 nM
CC1=Nc2c(F)cc(-c3nc(Nc4ccc(C5CCN(C)CC5)cn4)ncc3F)cc2C12CCCC2 [GLR2007],IC50,A549,66 nM
same,IC50,BEL7405,1150 nM
same,IC50,CHP-212,18 nM
same,IC50,DBTRG-05MG,6 nM
same,IC50,DLD-2,33 nM
same,IC50,Daoy,3960 nM
same,IC50,HCC827,15 nM
same,IC50,HCCLM3,1840 nM
same,IC50,HCT8,81 nM
same,IC50,Huh-7,43 nM
same,IC50,IMR32,21 nM
same,IC50,JHH-7,578 nM
same,IC50,KP-N-YN,657 nM
same,IC50,LS174T,160 nM
same,IC50,Li-7,712 nM
same,IC50,MDA-MB-468,1940 nM
same,IC50,MHCC97H,66 nM
same,IC50,MOG-G-UVW,43 nM
same,IC50,NCI-H1703,3 nM
same,IC50,NCI-H1915,53 nM
same,IC50,NCI-H2228,2050 nM
same,IC50,NCI-H292,73 nM
same,IC50,SK-MES-1,67 nM
same,IC50,SK-N-AS,66 nM
same,IC50,SK-N-BE(2); brain,130 nM
same,IC50,SNU-368,13 nM
same,IC50,SNU-387,68 nM
same,IC50,SNU-398,51 nM
same,IC50,SNU-423,19 nM
same,IC50,SNU-449,67 nM
same,IC50,SNU-886,6 nM
same,IC50,U118-MG,23 nM
same,IC50,U251,53 nM
same,IC50,U87-MG,16 nM
